Key:
r-NAAA = r-NAAA (Rattus norvegicus (Rat), UniProt Q5KTC7); experiment: r-NAAA inhibition, rat lung lysosomal NAAA preparation, UPLC/MS; assay type: biochemical
How it was run: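 Substrate was 50 μM heptadecenoylethanolamide, incubated 30 min at 37 °C after a 30 min compound preincubation at pH 4.5 with 1% Triton-X and 3 mM DTT. The enzyme source was rat lung lysosomal preparation. IC50 came from curve fitting of reduced heptadecenoic acid product, measured by negative-mode UPLC/MS versus vehicle.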

h-NAAA = h-NAAA (Homo sapiens (Human), UniProt Q02083); experiment: UPLC/MS h-NAAA assay; assay type: biochemical
Experimental: NAAA protein preparation (10 μg) was pre-incubated with various concentrations of test compound or vehicle control in 100 mM NaH2PO4, 100 mM Tri Sodium Citrate Dehydrate, 0.1% Triton-X 100, 3 mM DTT, pH 4.5 for 30 min at 37° C. Duplicate samples were then incubated with 50 μM C17:1 10-cis-heptadecenoylethanolamide (Avanti Polar Lipids, Alabaster, Ala.—USA) at 37° C. for 30 minutes. The reaction was terminated by the addition of 0.2 mL of cold methanol containing 1 nmol of heptadecanoic acid (NuChek Prep, Elysian, Minn.—USA) as internal standard. Samples were then analyzed by UPLC/MS. Heptadecenoic and heptadecanoic acids were eluted on an Acquity UPLC BEH C18 column (50 mm length, 2.1 mm i.d., 1.7 μm pore size, Waters) isocratically at 0.5 mL/min for 1.5 min with a solvent mixture of 95% methanol and 5% water, both containing 0.25% Acetic Acid and 5 mM Ammonium Acetate. The column temperature was 40° C. Electrospray ionization was in the negative mode, capillary voltage was 2.7 kV, cone voltage was 45 V, extractor voltage was 3 V. The source temperature was 150° C. with a desolvation temperature of 400° C. N2 was used as drying gas at a cone flow of 100 L/hour and a desolvation flow of […]. The [M−H]-ion was monitored in the selected-ion monitoring mode (m/z values: heptadecenoic acid 267.37, heptadecanoic acid 269.37). Calibration curves were generated using commercial heptadecenoic acid (NuCheck Prep) Inhibition of NAAA activity was calculated as reduction of heptadecenoic acid in the samples compared to vehicle controls. IC50 values were calculated by non-linear regression analysis of log [concentration]/inhibition curves using GraphPad Prism 5 (GraphPad Software Inc., CA—USA) applying a standard slope curve fitting.

UVB-induced inflammation = experiment: UV-B irradiation model in rats, plantar test; assay type: in vivo, rat
Experimental: Male Sprague Dawley rats (150-175 g, Charles River, Calco, Italy) were anaesthetized with a mixture of Tiletamine (15 mg/Kg) and Zolazepam (15 mg/Kg) administered in a single intra-peritoneal injection. Rats were then placed on their backs and shrouded in a UV opaque material with only the relevant surface of the plantar right hind paw exposed, perpendicular to the narrowband UVB light source situated above the level of the limb. The UVB source used for all experiments consisted of a bank of four TL01 fluorescent tubes (Philips, UK, λmax=312 nm) spaced 2.5 cm apart producing an even field of irradiation. The irradiance produced by the bulbs during each irradiation was determinate at the distance of the limb from the light source using a calibrate meter (I[…] with SEL240/UVB-1/TD filter, ABLE Instruments & Controls Ltd, UK). From this, the doses of UVB to which the rats were exposed were calculated. After plantar irradiation, nociceptive withdrawal responses to both thermal and mechanical stimuli were tested. Heat hypersensitivity was assessed using the rat plantar test equipment (Ugo Basile, Italy) following the method described by Hargreaves et al. (1988). […] Uninjured paw was always assessed first. […] The withdrawal threshold is calculated as the average of three consecutive tests with at list 5 minutes between each test. […]

[1] = tested on: 48/80-induced scratching (mast cell degranulation); experiment: Compound 48/80-induced scratching in mice; assay type: in vivo, mouse; conditions: topical, single dose
Experimental: The methods include the following. Itching in mice was induced with DNFB as previously described. Additional studies were done with 48/80 model (an inducer of mast cell degranulation). 48/80 was given subcutaneously (30 mg per kg).

r-NAAA, sequence (Q5KTC7 34-362): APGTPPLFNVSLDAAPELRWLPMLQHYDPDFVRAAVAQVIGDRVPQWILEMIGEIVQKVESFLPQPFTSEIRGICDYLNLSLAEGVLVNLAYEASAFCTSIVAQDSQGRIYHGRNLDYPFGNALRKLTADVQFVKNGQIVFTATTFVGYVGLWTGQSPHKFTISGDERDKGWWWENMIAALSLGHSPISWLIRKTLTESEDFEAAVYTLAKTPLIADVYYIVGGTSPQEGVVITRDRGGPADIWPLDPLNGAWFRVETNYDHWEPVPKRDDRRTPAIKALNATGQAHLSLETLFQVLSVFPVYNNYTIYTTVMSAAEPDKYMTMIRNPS
h-NAAA, sequence (Q02083 29-359): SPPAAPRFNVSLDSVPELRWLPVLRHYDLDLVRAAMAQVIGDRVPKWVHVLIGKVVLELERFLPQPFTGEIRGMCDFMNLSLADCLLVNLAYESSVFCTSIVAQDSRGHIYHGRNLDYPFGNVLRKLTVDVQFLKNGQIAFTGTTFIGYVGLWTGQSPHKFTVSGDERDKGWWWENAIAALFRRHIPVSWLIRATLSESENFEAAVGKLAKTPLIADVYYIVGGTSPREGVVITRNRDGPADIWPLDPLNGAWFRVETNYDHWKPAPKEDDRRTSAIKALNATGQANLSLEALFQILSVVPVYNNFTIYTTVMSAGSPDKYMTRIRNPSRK

C[C@@H]1OC(=O)[C@@H]1NC(=O)OCCCCCc1ccccc1 [Example 6, 5-phenylpentyl-[(2S,3R)-2-methyl-4-oxooxetan-3-yl]-carbamate]
IC50 (r-NAAA): 50 nM
IC50 (h-NAAA): 7 nM
Thermal hyperalgesia induced by irradiation with 250 mJ/cm^2 of UVB (UVB-induced inflammation; 10 and 30% w/w, vs vehicle): significantly reduced
UVB-induced inflammation (UVB-induced inflammation; topical suspension in vaseline oil plus 5% lauric acid): dose-dependently reduced the UVB-induced inflammation
Dose of maximal effect, 48/80-induced scratching [1]: 1%
Lowest effective dose, 48/80-induced scratching [1]: 0.01%
48/80-induced scratching ([1]; 48/80 30 mg per kg s.c.): prevents 48/80-induced scratching

Source: patent US9353075B2, “Disubstituted beta-lactones as inhibitors of N-acylethanolamine acid amidase (NAAA)” (The Regents of the University of California, priority 2011, dated 2016)
